Experimental data taken from publication PMC10225205 (Cancer Medicine, 2023).
“Also recorded” adds a separate entry of the source.

[1] = c1-2 9 mg ID n=3, c3-4 13.5 mg ID n=23, c5-6 18 mg ID n=5, c7-8 ID subtotal n=31, c9-10 13.5 mg CD n=13, c11-12 total n=44, odd c all grades, even c Grade ≥3

Procedure: The safety follow‐up period was 30 (+5) days after treatment.
Dose increases were limited to ≤50% in successive cohorts. MTD was defined as the maximum dose at which one‐third or fewer of patients reported a DLT. The pharmacologically active dose was defined as the one at which at least 80% of participants developed hyperphosphatemia (defined as serum phosphorus ≥5.5 mg/dL). In Part 2, patients started at the RP2D determined in Part 1.
Safety and tolerability were assessed by monitoring the frequency and duration of AEs, measuring vital signs, conducting 12‐lead electrocardiograms, and performing comprehensive eye examinations and physical examinations. Eye examinations were performed once every 3 cycles ±14 days and as clinically indicated, starting on Cycle 3.

Structure (SMILES): CCN1C(=O)N(c2c(F)c(OC)cc(OC)c2F)Cc2cnc3[nH]c(CN4CCOCC4)cc3c21 [Pemigatinib]
- Maximum tolerated dose (MTD) (9-18 mg QD): not identified; also recorded: not reached
- Clinically notable TEAE: Eyelash changes (trichiasis) [1]: 2 (15.4) n (%)
- TEAE: ALT increased [1]: 6 (13.6) n (%)
- TEAE: AST increased [1]: 2 (15.4) n (%)
- TEAE: Blood alkaline phosphatase increased [1]: 2 (15.4) n (%)
- TEAE: Blood creatinine increased [1]: 6 (13.6) n (%)
- TEAE: Conjunctivitis [1]: 2 (15.4) n (%)
- TEAE: Decreased appetite [1]: 2 (15.4) n (%)
- TEAE: Dry skin [1]: 2 (15.4) n (%)
- TEAE: Keratitis [1]: 2 (15.4) n (%)
- TEAE: Malaise [1]: 6 (13.6) n (%)
- TEAE: Nail discoloration [1]: 2 (15.4) n (%)
- TEAE: Paronychia [1]: 6 (13.6) n (%)
- TEAE: Punctate keratitis [1]: 2 (15.4) n (%)
- TEAE: Trichiasis [1]: 2 (15.4) n (%)
- TEAE: Vomiting [1]: 6 (13.6) n (%)
- Chorioretinopathy (human, in vivo): 2.3%
- Clinically notable TEAE: serous retinal detachment (category) (human, in vivo): 18.2%
- Clinically notable ocular TEAE: dry eye (category) (human, in vivo): 25%
- Dose interruptions due to clinically notable TEAEs (human, in vivo): 22.7%
- Dose reductions due to clinically notable TEAEs (human, in vivo): 6.8%
- Dry eye (term) (human, in vivo): 6.8%
- Eyelash changes (trichiasis) (human, in vivo): 9.1%
- Hyperphosphatemia leading to dose reduction (human, in vivo): 2.3%
- Hypophosphatemia (human, in vivo): 4.5%
- Keratitis (human, in vivo): 11.4%
- Lacrimation increased (human, in vivo): 2.3%
- Nail discoloration (human, in vivo): 6.8%
- Nail ridging (human, in vivo): 2.3%
- Nail toxicity TEAEs (human, in vivo): 31.8
- Oncholysis (human, in vivo): 4.5%
- Onychomadesis (human, in vivo): 11.4%
- Paronychia (human, in vivo): 13.6%
- Patients with at least 1 treatment-related TEAE (human, in vivo): 97.7%
- Patients with treatment-related TEAEs of Grade ≥3 (human, in vivo): 15.9%
- Punctate keratitis (human, in vivo): 6.8%
- Serous retinal detachment (term) (human, in vivo): 11.4%
- Severity of hyperphosphatemia events (human, in vivo): Grades 1 or 2
- Subretinal fluid (human, in vivo): 4.5%
- Treatment-related Grade ≥3 TEAE, each of anemia, punctate keratitis, diarrhea, stomatitis, ALT increased, AST increased, decreased appetite, hematuria (human, in vivo): 2.3%
- Treatment-related alanine aminotransferase increased, Grade ≥3 (human, in vivo): 1 (2.3) n (%)
- Treatment-related aspartate aminotransferase increased, Grade ≥3 (human, in vivo): 1 (2.3) n (%)
- Treatment-related decreased appetite, Grade ≥3 (human, in vivo): 1 (2.3) n (%)
- Treatment-related diarrhea, Grade ≥3 (human, in vivo): 1 (2.3) n (%)
- Treatment-related stomatitis, Grade ≥3 (human, in vivo): 1 (2.3) n (%)
- Vision blurred (human, in vivo): 4.5%
- Recommended phase 2 dose (RP2D) (human, in vivo, 21 days): 13.5 mg
- Discontinuation due to hyperphosphatemia (in vivo): No patients
- Dose-limiting toxicities (DLTs) (in vivo): No DLTs
- Patients with any TEAE (in vivo): all enrolled patients
- TEAE with a fatal outcome (overall, considered unrelated to pemigatinib): 6.8%
